Active and inactive are the calls of the source. The calls are words filed in the database; no cut-off is given here.
Experiments:
RAW264.7 = assay: Antiinflammatory activity against mouse RAW264.7 cells assessed as inhibition of LPS-induced nitric oxide production measured after 24 hrs; type: functional, cell-based; details: RAW264.7, 24 h
Saccharomyces cerevisiae [1] = assay: Inhibition of yeast alpha-glucosidase at 50 uM using p-nitrophenyl-alpha-D-glucopyranoside as substrate preincubated for 30 mins followed by substrate addition and measured after 30 mins by microplate reader analysis
[2] = Inhibition of yeast alpha-glucosidase using p-nitrophenyl-alpha-D-glucopyranoside as substrate preincubated for 30 mins followed by substrate addition and measured after 30 mins by microplate reader analysis; set-up: species or system Saccharomyces cerevisiae
[3] = Mixed-type inhibition of yeast alpha-glucosidase assessed as inhibition constant using p-NPG as substrate measured up to 180 mins by Lineweaver-Burk plot analysis; set-up: species or system Saccharomyces cerevisiae
Saccharomyces cerevisiae [4] = assay: Mixed-type inhibition of yeast alpha-glucosidase assessed as reduction in Km up to 20 uM using p-NPG as substrate measured up to 180 mins by Lineweaver-Burk plot analysis
Saccharomyces cerevisiae [5] = assay: Mixed-type inhibition of yeast alpha-glucosidase assessed as reduction in Vmax up to 20 uM using p-NPG as substrate measured up to 180 mins by Lineweaver-Burk plot analysis

Row | Structure (SMILES) | IC50 (RAW264.7) [µM] | inhibition (Saccharomyces cerevisiae [1]) [%] | IC50 [2] [µM] | Ki [3] [µM] | inhibition (Saccharomyces cerevisiae [4]) | inhibition (Saccharomyces cerevisiae [5])
1 | CNC(=N)NCCC[C@H](N)C(=O)O [TILARGININE] | 27.2 | – | – | – | – | –
2 | O=c1c(-c2ccc(O)cc2)coc2cc(O)cc(O)c12 [GENISTEIN] | – | 70 | 17.6 | – | – | –
3 | OC[C@H]1NC[C@H](O)[C@@H](O)[C@@H]1O [DUVOGLUSTAT] | – | 36.8 | 115 | – | – | –
4 | CC1(C)CCC[C@]2(C)CC3=C(C[C@@H]12)C(=O)CC3 | 43.1 | 12.4 | > 50 | – | – | –
5 | C=C1CC[C@H]2C(C)(C)CCC[C@]2(C)[C@H]1C/C=C(\CC(=O)OCC)C(=O)O | > 50 | 38.7 | > 50 | – | – | –
6 | C=C1CC[C@H]2C(C)(C)CCC[C@]2(C)[C@H]1C/C=C(/C=O)CO | 28.7 | 27.1 | > 50 | – | – | –
7 | C=C1CC[C@H]2C(C)(C)CCC[C@]2(C)[C@H]1C/C=C(/C=O)CCO | > 50 | 36.9 | > 50 | – | – | –
8 | C=C1CC[C@H]2C(C)(C)CCC[C@]2(C)[C@H]1/C=C/C(=O)O | 23.7 | 33.2 | > 50 | – | – | –

Next, values leading:

Row | IC50 (RAW264.7) [µM] | inhibition (Saccharomyces cerevisiae [1]) [%] | IC50 [2] [µM] | Ki [3] [µM] | inhibition (Saccharomyces cerevisiae [4]) | inhibition (Saccharomyces cerevisiae [5]) | Structure (SMILES)
9 | 25.8 | 87.4 | 17.5 | – | – | – | C=C1CC[C@H]2C(C)(C)CCC[C@]2(C)[C@H]1CCC1=CC(O)OC1=O (some centres undefined) [CORONARIN C]
10 | 24.6 | 87.8 | 15.8 | – | – | – | C=C1CC[C@H]2C(C)(C)CCC[C@]2(C)[C@H]1C/C=C1\CC(OC)OC1=O (some centres undefined)
11 | 2.4 | 95.7 | 10 | 9.5 | Active | Active | C=C1CC[C@H]2C(C)(C)CCC[C@]2(C)[C@H]1/C=C/C1=CC(=O)O[C@H]1O
12 | 18.8 | 89 | 14.8 | – | – | – | C=C1CC[C@H]2C(C)(C)CCC[C@]2(C)[C@H]1CCC1=CC(=O)OC1
13 | 31.2 | 89.3 | 13.8 | – | – | – | C=C1CC[C@H]2C(C)(C)CCC[C@]2(C)[C@H]1C/C=C1\CC(OCC)OC1=O (some centres undefined)
14 | 30.8 | 89.1 | 17.1 | – | – | – | C=C1CC[C@H]2C(C)(C)CCC[C@]2(C)[C@H]1C/C=C1\CCOC1=O
15 | 11 | 90.3 | 21.1 | – | – | – | C=C1CC[C@H]2C(C)(C)CCC[C@]2(C)[C@H]1C/C=C1\CC(=O)OC1=O

Reference: ChEMBL document CHEMBL4334519, “Anti-inflammatory and α-Glucosidase Inhibitory Activities of Labdane and Norlabdane Diterpenoids from the Rhizomes of Amomum villosum” (J Nat Prod, 2019)
